Laboratory results taken from patent US8906925B2, “Pyrido[4,3-B]indoles containing rigid moieties” (Medivation Technologies, Inc., priority 2008, dated 2014).
Read-outs that look alike come from different tables or passages of the source.

Legend:
[1] = target: T1, rat adrenergic α1A receptor (Rattus norvegicus, UniProt P43140); assay: Adrenergic α1A radioligand binding ([3H]Prozosin); details: compound at 1 μM
T1 construct: from tissue; host or cells: Wistar rat submaxillary glands
T1 sequence (P43140 1-466): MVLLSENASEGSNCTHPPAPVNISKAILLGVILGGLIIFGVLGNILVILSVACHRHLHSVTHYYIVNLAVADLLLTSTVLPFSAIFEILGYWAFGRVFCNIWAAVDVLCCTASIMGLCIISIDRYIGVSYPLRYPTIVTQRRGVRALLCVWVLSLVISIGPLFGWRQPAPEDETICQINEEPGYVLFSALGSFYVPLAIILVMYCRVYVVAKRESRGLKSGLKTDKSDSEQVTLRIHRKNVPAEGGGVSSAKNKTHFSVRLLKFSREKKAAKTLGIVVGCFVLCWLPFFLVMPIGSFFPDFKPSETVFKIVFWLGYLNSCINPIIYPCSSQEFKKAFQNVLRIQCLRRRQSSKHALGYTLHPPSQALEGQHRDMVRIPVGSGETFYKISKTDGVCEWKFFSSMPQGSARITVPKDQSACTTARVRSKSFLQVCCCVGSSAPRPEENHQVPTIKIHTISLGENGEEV
Procedure: To evaluate in radioligand binding assays the activity of compounds of the invention, rat adrenergic α1A receptor obtained from Wistar Rat submaxillary glands (Michel, A. D. et al., Br. J. Pharmacol. 98:883, 1989) in a modified Tris-HCl buffer (50 mM Tris-HCl buffer, pH 7.4, 0.5 mM EDTA) was used. Compounds of the invention were incubated with 0.25 nM [^3H]Prozosin for 60 min. at 25° C. Non-specific binding was estimated in the presence of 10 μM phentolamine. Receptor proteins were filtered and washed, the filters were then counted to determine [^3H]Prozosin specifically bound. Compounds of the invention were screened at 1 μM or lower, using 1% DMSO as vehicle. Compounds of the invention were tested in this biochemical assay and percent inhibition of specific binding was determined.

[2] = target: T2, human recombinant serotonin (5-Hydroxytryptamine) 5-HT2B receptor (Homo sapiens, UniProt P41595); assay: Serotonin 5-HT2B radioligand binding ([3H]LSD); details: for inhibition at 0.1 µM: compound at 0.1 μM; for inhibition at 0.1 µM / inhibition at 1 µM: read-out: Inhibition of ligand binding, Serotonin 5-HT2B (percent inhibition of specific binding)
T2 construct: expressed in transfected cells; host or cells: Chinese hamster ovary (CHO-K1) cells
T2 sequence (P41595 whole entry): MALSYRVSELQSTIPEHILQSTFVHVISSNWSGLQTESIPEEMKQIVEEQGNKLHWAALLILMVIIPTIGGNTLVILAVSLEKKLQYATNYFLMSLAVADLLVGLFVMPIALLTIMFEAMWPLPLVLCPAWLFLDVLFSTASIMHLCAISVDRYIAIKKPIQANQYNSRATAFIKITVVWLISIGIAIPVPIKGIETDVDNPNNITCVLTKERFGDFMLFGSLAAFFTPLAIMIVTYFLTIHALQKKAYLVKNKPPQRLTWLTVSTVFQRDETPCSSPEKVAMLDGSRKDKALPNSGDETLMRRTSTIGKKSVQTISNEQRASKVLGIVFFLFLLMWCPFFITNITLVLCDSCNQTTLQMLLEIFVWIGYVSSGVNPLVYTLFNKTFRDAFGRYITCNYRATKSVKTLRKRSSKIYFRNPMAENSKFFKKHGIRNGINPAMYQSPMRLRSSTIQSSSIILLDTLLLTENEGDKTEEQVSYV
Procedure: Compounds of invention were incubated with 1.2 nM [^3H]Lysergic acid diethylamide (LSD) for 60 min. at 37° C. […] Receptor proteins were filtered and washed, the filters were then counted to determine [^3H]LSD specifically bound. Compounds were screened at 1 μM or lower, using 1% DMSO as vehicle. Compounds of the invention were tested in this biochemical assay and percent inhibition of specific binding was determined. Biochemical assay results are presented as the percent inhibition of specific binding in Table 10.

male Wistar rat = assay: Conditioned avoidance response (CAR) model; format: in vivo; details: 0.1, 0.3, 1, 3, 10 and 20 mg/kg, p.o.
Procedure: All currently approved antipsychotic agents (typical and atypical) are known to have the ability to selectively suppress conditioned avoidance response (CAR) behavior in the rat. This evidence makes CAR one of the primary tests to assess antipsychotic activity of novel compounds.
The effects of Compound Nos. 83, 88 and 90, at concentrations including 0.1, 0.3, 1, 3, 10 and 20 mg/kg, p.o., in the conditioned avoidance response model were assessed in the male Wistar rat. Risperidone (0.3 mg/kg, s.c.) was used in the present study as a positive reference compound.
For each testing session, animals were first placed for a 4-min. habituation period in a shuttlebox with an electrified grid floor. Then, rats were submitted to 30 trials spaced by intertribal intervals varying at random between 20 and 30 sec. Each trial consisted of a 10-sec. light stimulus (conditioned stimulus, CS) followed by a 10-sec. electric foot shock (unconditioned stimulus, US) in presence of the light presented in the compartment where the rat is located. If the animal moved to the other compartment during the initial 10-sec. of the trial, the light was terminated (no shock was delivered) and the response was recorded as an avoidance response. If the rat changed compartment during the foot shock, the light and the shock were terminated and the response was recorded as an unconditioned response. […] If a response was made during an intertrial interval, the response was recorded as an intertrial crossing. Training was performed 5 days per week with one session of 30 trials per day, until rats reached the performance criterion of 80% of avoidance response on at least two consecutive daily sessions. […] A minimal wash-out period of 48 hours was allowed between 2 treatments. During the wash-out period, animals were trained until they recovered an avoidance performance of at least 80%.
Statistical analysis was performed using a Friedman two-way ANOVA by ranks followed by the Wilcoxon matched-pairs signed-ranks test to test each dose of the test compound administered versus vehicle control treated rats.

[3] = percent inhibition of specific binding, read-out: Inhibition of ligand binding, Adrenergic α1A

Row | SMILES | inhibition at 1 µM [1, 3] [%] | inhibition at 1 µM ([2]; compound at 1 μM) [%] | number of avoidance responses versus pretreatment, compared to vehicle (male Wistar rat) | also measured
1 | Cc1ccc(C(O)Cn2c3c(c4cc(C)ccc42)CN(C)CC3)cc1 (racemic) [Compound 43, racemic-2-(1,2,3,4-tetrahydro-2,8-dimethylpyrido[4,3-b]indol-5-yl)-1-p-tolylethanol] | 90 | 70 |  | Inhibition of ligand binding, Adrenergic α1A ([1]; percent inhibition of specific binding, 1 µM): 96%; inhibition at 0.1 µM [2]: -2%; Inhibition of ligand binding, Serotonin 5-HT2B (percent inhibition of specific binding) ([2]; compound at 1 μM, 1 µM): 77%
2 | CCN1CCc2c(c3ccccc3n2CC(O)c2ccc(C)cc2)C1 (racemic) [Compound 44, racemic-2-(2-ethyl-1,2,3,4-tetrahydropyrido[4,3-b]indol-5-yl)-1-p-tolylethanol] | 39 | 11 |  | 
3 | CCN1CCc2c(c3cc(C)ccc3n2CC(O)c2ccc(C)cc2)C1 (racemic) [Compound 51, racemic-2-(2-ethyl-1,2,3,4-tetrahydro-8-methylpyrido[4,3-b]indol-5-yl)-1-p-tolylethanol] | 86 | 32 |  | inhibition at 0.1 µM [2]: 12%
4 | Cc1ccc(C(O)Cn2c3c(c4ccccc42)CN(C)CC3)cc1 (racemic) [Compound 53, racemic-2-(1,2,3,4-tetrahydro-2-methylpyrido[4,3-b]indol-5-yl)-1-p-tolylethanol] | 74 | 23 |  | 
5 | C/C(=C\n1c2c(c3cc(Cl)ccc31)CN(C)CC2)c1ccc(F)cc1 [Compound 83, (E)-8-chloro-5-(2-(4-fluorophenyl)prop-1-enyl)-2,3,4,5-tetrahydro-2-methyl-1H-pyrido[4,3-b]indole] | 90 | 88 | significantly and dose-dependently decreased | 
6 | C/C(=C\n1c2c(c3cc(C)ccc31)CN(C)CC2)c1ccncc1 [Compound 88, (E)-2,3,4,5-tetrahydro-2,8-dimethyl-5-(2-(pyridin-4-yl)prop-1-enyl)-1H-pyrido[4,3-b]indole] |  |  | significantly and dose-dependently decreased | 
7 | C/C(=C\n1c2c(c3cc(Cl)ccc31)CN(C)CC2)c1ccncc1 [Compound 90, (E)-8-chloro-2,3,4,5-tetrahydro-2-methyl-5-(2-(pyridin-4-yl)prop-1-enyl)-1H-pyrido[4,3-b]indole] |  |  | significantly and dose-dependently decreased | 
8 | Cc1ccc2c(c1)c1c(n2CC#Cc2ccccn2)CCN(C)C1 [Compound No. 500, 2,3,4,5-tetrahydro-2,8-dimethyl-5-(3-(pyridin-2-yl)prop-2-ynyl)-1H-pyrido[4,3-b]indole] |  | 34 |  | inhibition at 1 µM ([1]; read-out: Inhibition of ligand binding, Adrenergic α1A (percent inhibition of specific binding)): 27%
